Experimental data as given in patent publication EP4617278A1, “NUCLEOTIDE ANALOG, AND COMPOSITION AND USE THEREOF” (priority 2022, dated 2024).

What follows are compounds tested on SARS-CoV-2 replicon. Settings: read-out: SARS-CoV-2 Replicon (Huh-7cell) EC50.
Type: cell-based

| Compound | EC50 [nM] |
| --- | --- |
| CC(C)C(=O)O[C@H]1[C@@H](OC(=O)C(C)C)[C@](C#N)(c2ccc3c(N)ncnn23)O[C@@H]1COP(=O)(OCCSC(=O)C(C)(C)C)OCCSC(=O)C(C)(C)C [Compound 30, (2R,3R,4R,5R)-2-(4-aminopyrrolo[2,1-f][1,2,4]triazin-7-yl)-5-((((bis(2-(pivaloylthio)ethoxy))phosphoryl)oxy)methyl)-2-cyanotetrahydrofuran-3,4-diyl bis(2-methylpropionate)] | < 5 |
| CCC(CC)COC(=O)[C@H](Cc1ccccc1)N[P@](=O)(OCOC(=O)OC(C)C)OC[C@H]1O[C@@](C#N)(c2ccc3c(N)ncnn23)[C@H](OC(=O)C(C)C)[C@@H]1OC(=O)C(C)C [Compound 31a, (2R,3R,4R,5R)-2-(4-aminopyrrolo[2,1-f][1,2,4]triazin-7-yl)-2-cyano-5-((((R)-(((S)-1-(2-ethylbutoxy)-1-oxo-3-phenylpropan-2-yl)amino)(((isopropoxycarbonyl)oxy)methoxy)phosphoryl)oxy)methyl)tetrahydrofuran-3,4-diyl bis(2-methylpropionate)] | 10 to 50 |
| CCC(CC)COC(=O)[C@H](Cc1ccccc1)N[P@@](=O)(OCOC(=O)OC(C)C)OC[C@H]1O[C@@](C#N)(c2ccc3c(N)ncnn23)[C@H](OC(=O)C(C)C)[C@@H]1OC(=O)C(C)C [Compound 31b, (2R,3R,4R,5R)-2-(4-aminopyrrolo[2,1-f][1,2,4]triazin-7-yl)-2-cyano-5-((((S)-(((S)-1-(2-ethylbutoxy)-1-oxo-3-phenylpropan-2-yl)amino)(((isopropoxycarbonyl)oxy)methoxy)phosphoryl)oxy)methyl)tetrahydrofuran-3,4-diyl bis(2-methylpropionate)] | 10 to 50 |
| CCC(CC)COC(=O)C1(N[P@](=O)(OCOC(=O)OC(C)C)OC[C@H]2O[C@@](C#N)(c3ccc4c(N)ncnn34)[C@H](OC(=O)C(C)C)[C@@H]2OC(=O)C(C)C)CCC1 [Compound 32a, (2R,3R,4R,5R)-2-(4-aminopyrrolo[2,1-f][1,2,4]triazin-7-yl)-2-cyano-5-((((R)-((1-((2-ethylbutoxy)carbonyl)cyclobutyl)amino)(((isopropoxycarbonyl)oxy)methoxy)phosphoryl)oxy)methyl)tetrahydrofuran-3,4-diyl bis(2-methylpropionate)] | 10 to 50 |
| CCC(CC)COC(=O)C1(N[P@@](=O)(OCOC(=O)OC(C)C)OC[C@H]2O[C@@](C#N)(c3ccc4c(N)ncnn34)[C@H](OC(=O)C(C)C)[C@@H]2OC(=O)C(C)C)CCC1 [Compound 32b, (2R,3R,4R,5R)-2-(4-aminopyrrolo[2,1-f][1,2,4]triazin-7-yl)-2-cyano-5-((((S)-((1-((2-ethylbutoxy)carbonyl)cyclobutyl)amino)(((isopropoxycarbonyl)oxy)methoxy)phosphoryl)oxy)methyl)tetrahydrofuran-3,4-diyl bis(2-methylpropionate)] | 10 to 50 |
| CCCCCOC(=O)C[C@H](N[P@@](=O)(OC[C@H]1O[C@@](C#N)(c2ccc3c(N)ncnn23)[C@H](OC(=O)C(C)C)[C@@H]1OC(=O)C(C)C)Oc1ccccc1)C(=O)OCCCCC [Compound 38a, (2R,3R,4R,5R)-2-(4-aminopyrrolo[2,1-f][1,2,4]triazin-7-yl)-2-cyano-5-((((R)-(((S)-1,4-dipentyloxy-1,4-dioxobutan-2-yl)amino)(phenoxy)phosphoryl)oxy)methyl)tetrahydrofuran-3,4-diyl bis(2-methylpropionate)] | 50 to 500 |
| CCCCCOC(=O)C[C@H](N[P@](=O)(OC[C@H]1O[C@@](C#N)(c2ccc3c(N)ncnn23)[C@H](OC(=O)C(C)C)[C@@H]1OC(=O)C(C)C)Oc1ccccc1)C(=O)OCCCCC [Compound 38b, (2R,3R,4R,5R)-2-(4-aminopyrrolo[2,1-f][1,2,4]triazin-7-yl)-2-cyano-5-((((S)-(((S)-1,4-dipentyloxy-1,4-dioxobutan-2-yl)amino)(phenoxy)phosphoryl)oxy)methyl)tetrahydrofuran-3,4-diyl bis(2-methylpropionate)] | 10 to 50 |
| CCCCCOC(=O)C[C@H](N[P@@](=O)(OC[C@H]1O[C@@](C#N)(c2ccc3c(N)ncnn23)[C@H](OC(=O)C(C)C)[C@@H]1OC(=O)C(C)C)Oc1ccc(C(C)(C)C)cc1)C(=O)OCCCCC [Compound 39a, (2R,3R,4R,5R)-2-(4-aminopyrrolo[2,1-f][1,2,4]triazin-7-yl)-2-cyano-5-((((R)-(((S)-1,4-dipentyloxy-1,4-dioxobutan-2-yl)amino)(4-tert-butylphenoxy)phosphoryl)oxy)methyl)tetrahydrofuran-3,4-diyl bis(2-methylpropionate)] | 50 to 500 |
| CCCCCOC(=O)C[C@H](N[P@](=O)(OC[C@H]1O[C@@](C#N)(c2ccc3c(N)ncnn23)[C@H](OC(=O)C(C)C)[C@@H]1OC(=O)C(C)C)Oc1ccc(C(C)(C)C)cc1)C(=O)OCCCCC [Compound 39b, (2R,3R,4R,5R)-2-(4-aminopyrrolo[2,1-f][1,2,4]triazin-7-yl)-2-cyano-5-((((S)-(((S)-1,4-dipentyloxy-1,4-dioxobutan-2-yl)amino)(4-tert-butylphenoxy)phosphoryl)oxy)methyl)tetrahydrofuran-3,4-diyl bis(2-methylpropionate)] | 10 to 50 |
| CCC(CC)COC(=O)C1(N[P@@](=O)(OC[C@H]2O[C@@](C#N)(c3ccc4c(N)ncnn34)[C@H](OC(=O)C(C)C)[C@@H]2OC(=O)C(C)C)Oc2ccccc2)CCC1 [Compound 40a, (2R,3R,4R,5R)-2-(4-aminopyrrolo[2,1-f][1,2,4]triazin-7-yl)-2-cyano-5-((((R)-((1-((2-ethylbutoxy)carbonyl)cyclobutyl)amino)(phenoxy)phosphoryl)oxy)methyl)tetrahydrofura n-3,4-diyl bis(2-methylpropionate)] | 10 to 50 |
| CCC(CC)COC(=O)C1(N[P@](=O)(OC[C@H]2O[C@@](C#N)(c3ccc4c(N)ncnn34)[C@H](OC(=O)C(C)C)[C@@H]2OC(=O)C(C)C)Oc2ccccc2)CCC1 [Compound 40b, (2R,3R,4R,5R)-2-(4-aminopyrrolo[2,1-f][1,2,4]triazin-7-yl)-2-cyano-5-((((S)-((1-((2-ethylbutoxy)carbonyl)cyclobutyl)amino)(phenoxy)phosphoryl)oxy)methyl)tetrahydrofura n-3,4-diyl bis(2-methylpropionate)] | 50 to 500 |
| CCC(CC)COC(=O)[C@H](Cc1ccccc1)N[P@@](=O)(OC[C@H]1O[C@@](C#N)(c2ccc3c(N)ncnn23)[C@H](OC(=O)C(C)C)[C@@H]1OC(=O)C(C)C)Oc1ccccc1 [Compound 41a, (2R,3R,4R,5R)-2-(4-aminopyrrolo[2,1-f][1,2,4]triazin-7-yl)-2-cyano-5-((((R)-(((S)-1-(2-ethylbutoxy)-1-oxo-3-phenylpropan-2-yl)amino)(phenoxy)phosphoryl)oxy)methyl)tetrahydrofuran-3,4-diyl bis(2-methylpropionate)] | 50 to 500 |
| CCC(CC)COC(=O)[C@H](Cc1ccccc1)N[P@](=O)(OC[C@H]1O[C@@](C#N)(c2ccc3c(N)ncnn23)[C@H](OC(=O)C(C)C)[C@@H]1OC(=O)C(C)C)Oc1ccccc1 [Compound 41b, (2R,3R,4R,5R)-2-(4-aminopyrrolo[2,1-f][1,2,4]triazin-7-yl)-2-cyano-5-((((S)-(((S)-1-(2-ethylbutoxy)-1-oxo-3-phenylpropan-2-yl)amino)(phenoxy)phosphoryl)oxy)methyl)tetrahydrofuran-3,4-diyl bis(2-methylpropionate)] | 5 to 10 |
| CC(=O)OCO[P@@](=O)(OC[C@H]1O[C@@](C#N)(c2ccc3c(N)ncnn23)[C@H](OC(=O)C(C)C)[C@@H]1OC(=O)C(C)C)Oc1ccc(C(C)(C)C)cc1 [Compound 43a, (2R,3R,4R,5R)-2-(4-aminopyrrolo[2,1-f][1,2,4]triazin-7-yl)-5-(((((S)-acetoxylmethoxy)(4-tert-butylphenoxy)phosphoryl)oxy)methyl)-2-cyanotetrahydrofuran-3,4-diyl bis(2-methylpropionate)] | 5 to 10 |
| CC(=O)OCO[P@](=O)(OC[C@H]1O[C@@](C#N)(c2ccc3c(N)ncnn23)[C@H](OC(=O)C(C)C)[C@@H]1OC(=O)C(C)C)Oc1ccc(C(C)(C)C)cc1 [Compound 43b, (2R,3R,4R,5R)-2-(4-aminopyrrolo[2,1-f][1,2,4]triazin-7-yl)-5-(((((R)-acetoxylmethoxy)(4-tert-butylphenoxy)phosphoryl)oxy)methyl)-2-cyanotetrahydrofuran-3,4-diyl bis(2-methylpropionate)] | 5 to 10 |
| CC(C)C(=O)O[C@H]1[C@@H](OC(=O)C(C)C)[C@](C#N)(c2ccc3c(N)ncnn23)O[C@@H]1CO[P@](=O)(OCOC(=O)C(C)(C)C)Oc1ccc(C(C)(C)C)cc1 [Compound 44a, (2R,3R,4R,5R)-2-(4-aminopyrrolo[2,1-f][1,2,4]triazin-7-yl)-5-(((((S)-4-tert-butylphenoxy)(((tert-butylcarbonyl)oxy)methoxy)phosphoryl)oxy)methyl)-2-cyanotetrahydrofuran-3,4-diyl bis(2-methylpropionate)] | 5 to 10 |
| CC(C)C(=O)O[C@H]1[C@@H](OC(=O)C(C)C)[C@](C#N)(c2ccc3c(N)ncnn23)O[C@@H]1CO[P@@](=O)(OCOC(=O)C(C)(C)C)Oc1ccc(C(C)(C)C)cc1 [Compound 44b, (2R,3R,4R,5R)-2-(4-aminopyrrolo[2,1-f][1,2,4]triazin-7-yl)-5-(((((R)-4-tert-butylphenoxy)(((tert-butylcarbonyl)oxy)methoxy)phosphoryl)oxy)methyl)-2-cyanotetrahydrofuran-3,4-diyl bis(2-methylpropionate)] | 10 to 50 |
| CC(C)C(=O)OCOP(=O)(OCOC(=O)C(C)C)OC[C@H]1O[C@@](C#N)(c2ccc3c(N)ncnn23)[C@H](OC(=O)C(C)C)[C@@H]1OC(=O)C(C)C [Compound 45] | ≤ 5 |
| CCCCCCCCCCCCOC(=O)[C@H](C)N[P@@](=O)(OC[C@H]1O[C@@](C#N)(c2ccc3c(N)ncnn23)[C@H](OC(=O)C(C)C)[C@@H]1OC(=O)C(C)C)Oc1ccccc1 [Compound 46a] | 50 to 500 |
| CCCCCCCCCCCCOC(=O)[C@H](C)N[P@](=O)(OC[C@H]1O[C@@](C#N)(c2ccc3c(N)ncnn23)[C@H](OC(=O)C(C)C)[C@@H]1OC(=O)C(C)C)Oc1ccccc1 [Compound 46b, (2R,3R,4R,5R)-2-(4-aminopyrrolo[2,1-f][1,2,4]triazin-7-yl)-2-cyano-5-((((S)-(((S)-1-(dodecyloxy)-1-oxopropan-2-yl)amino)(phenoxy)phosphoryl)oxy)methyl)tetrahydrofuran-3,4-diyl bis(2-methylpropionate)] | 50 to 500 |
